Measurements reported in ChEMBL document CHEMBL3885861, “Open TG-GATES”.

Species: Rattus norvegicus
Assay: Open TG-GATES - Regimen: Daily Repeat
Assay type: toxicity, organism-based, Sprague-Dawley
Set-up: regimen Daily Repeat, gender Male, age 6 weeks
Settings: in vivo, po, route gavage; for APTT / Bas / Eos / Fbg / Hb / Ht / Lym / MCH / MCHC / MCV / Mono / Neu / PT / Plat / RBC / Ret / WBC: tissue Blood; for KIDNEY_L / KIDNEY_R / KIDNEY_TOTAL: tissue Kidney; for LIVER: tissue Liver; for A/G / ALP / ALT / AST / BUN / CRE / Ca / Cl / DBIL / GLC / IP / K / LDH / Na / PL / RALB / TBIL / TC / TG / TP / gamma-GTP: tissue Plasma
[1] = 0 mg/kg, 72 h, dose level Control, time 3 day
[2] = 0 mg/kg, […], dose level Control, time 7 day
[3] = 0 mg/kg, […], dose level Control, time 14 day
[4] = 0 mg/kg, […], dose level Control, time 28 day
[5] = 50 mg/kg, 72 h, dose level Low, time 3 day
[6] = 50 mg/kg, […], dose level Low, time 7 day
[7] = 50 mg/kg, […], dose level Low, time 14 day
[8] = 50 mg/kg, […], dose level Low, time 28 day

## NNC(=O)c1ccncc1 [ISONIAZID]
[1]
  TERMINAL_BW: 219.4 g
  APTT: 14.3 s
  Bas: 0.2%
  Eos: 2%
  Fbg: 229.4 mg/dL
  Hb: 13.6 g/dL
  Ht: 40.8%
  Lym: 74%
  MCH: 21.7 pg
  MCHC: 33.2%
  MCV: 65.2 fL
  Mono: 8.8%
  Neu: 15.6%
  PT: 12.1 s
  Plat: 120.9 x10_4/uL
  RBC: 626.2 x10_4/ul
  Ret: 8.2%
  WBC: 101.8 x10_2/uL
  KIDNEY_L: 0.9 g
  KIDNEY_R: 1 g
  KIDNEY_TOTAL: 1.9 g
  LIVER: 11.3 g
  A/G: 1.8
  ALP: 836.8 IU/L
  ALT: 33.6 IU/L
  AST: 61.8 IU/L
  BUN: 19 mg/dL
  CRE: 0.5 mg/dL
  Ca: 10.8 mg/dL
  Cl: 103.8 meq/L
  DBIL: 0.068 mg/dL
  GLC: 209.2 mg/dL
  IP: 7.6 mg/dL
  K: 5.1 meq/L
  LDH: 102 IU/L
  Na: 139.4 meq/L
  PL: 163.4 mg/dL
  RALB: 3.8 g/dL
  TBIL: 0.3 mg/dL
  TC: 85.8 mg/dL
  TG: 110.2 mg/dL
  TP: 6 g/dL
  gamma-GTP: 1.6 IU/L
[2]
  TERMINAL_BW: 251.9 g
  APTT: 14.6 s
  Bas: 0%
  Eos: 1%
  Fbg: 235 mg/dL
  Hb: 13.8 g/dL
  Ht: 41.5%
  Lym: 76.8%
  MCH: 21.4 pg
  MCHC: 33.4%
  MCV: 64.2 fL
  Mono: 10.2%
  Neu: 11.6%
  PT: 12 s
  Plat: 127.4 x10_4/uL
  RBC: 646.4 x10_4/ul
  Ret: 6%
  WBC: 108.1 x10_2/uL
  KIDNEY_L: 1.1 g
  KIDNEY_R: 1.1 g
  KIDNEY_TOTAL: 2.2 g
  LIVER: 12.3 g
  A/G: 1.7
  ALP: 884.4 IU/L
  ALT: 33 IU/L
  AST: 56.6 IU/L
  BUN: 19.6 mg/dL
  CRE: 0.5 mg/dL
  Ca: 10.6 mg/dL
  Cl: 105 meq/L
  DBIL: 0.074 mg/dL
  GLC: 223.8 mg/dL
  IP: 8.4 mg/dL
  K: 5 meq/L
  LDH: 115.2 IU/L
  Na: 140.4 meq/L
  PL: 163 mg/dL
  RALB: 3.7 g/dL
  TBIL: 0.3 mg/dL
  TC: 81.6 mg/dL
  TG: 130.2 mg/dL
  TP: 5.9 g/dL
  gamma-GTP: 1.2 IU/L
[3]
  TERMINAL_BW: 294 g
  APTT: 16.1 s
  Bas: 0%
  Eos: 1.2%
  Fbg: 224.2 mg/dL
  Hb: 15.1 g/dL
  Ht: 44.9%
  Lym: 78.2%
  MCH: 20.3 pg
  MCHC: 33.5%
  MCV: 60.6 fL
  Mono: 5.5%
  Neu: 14.8%
  PT: 11.8 s
  Plat: 114.6 x10_4/uL
  RBC: 740.8 x10_4/ul
  Ret: 3.9%
  WBC: 109.8 x10_2/uL
  KIDNEY_L: 1.1 g
  KIDNEY_R: 1.1 g
  KIDNEY_TOTAL: 2.2 g
  LIVER: 13.3 g
  A/G: 1.6
  ALP: 783.8 IU/L
  ALT: 29.6 IU/L
  AST: 62 IU/L
  BUN: 19.2 mg/dL
  CRE: 0.6 mg/dL
  Ca: 10.4 mg/dL
  Cl: 106.8 meq/L
  DBIL: 0.002 mg/dL
  GLC: 213.2 mg/dL
  IP: 7.9 mg/dL
  K: 5.1 meq/L
  LDH: 160 IU/L
  Na: 139.4 meq/L
  PL: 151 mg/dL
  RALB: 3.6 g/dL
  TBIL: 0.3 mg/dL
  TC: 76.4 mg/dL
  TG: 144 mg/dL
  TP: 5.9 g/dL
  gamma-GTP: 0.4 IU/L
[4]
  TERMINAL_BW: 374.9 g
  APTT: 15.9 s
  Bas: 0%
  Eos: 1.2%
  Fbg: 227.4 mg/dL
  Hb: 15.5 g/dL
  Ht: 46%
  Lym: 85.8%
  MCH: 19.7 pg
  MCHC: 33.8%
  MCV: 58.2 fL
  Mono: 3.2%
  Neu: 9.2%
  PT: 12 s
  Plat: 106.3 x10_4/uL
  RBC: 790.6 x10_4/ul
  Ret: 2.5%
  WBC: 140.8 x10_2/uL
  KIDNEY_L: 1.3 g
  KIDNEY_R: 1.3 g
  KIDNEY_TOTAL: 2.6 g
  LIVER: 15.5 g
  A/G: 1.4
  ALP: 751.6 IU/L
  ALT: 26.8 IU/L
  AST: 56.4 IU/L
  BUN: 19.4 mg/dL
  CRE: 0.5 mg/dL
  Ca: 10 mg/dL
  Cl: 104.6 meq/L
  DBIL: 0.06 mg/dL
  GLC: 208.8 mg/dL
  IP: 7.2 mg/dL
  K: 4.4 meq/L
  LDH: 73.4 IU/L
  Na: 142.2 meq/L
  PL: 141.8 mg/dL
  RALB: 3.6 g/dL
  TBIL: 0.2 mg/dL
  TC: 70.6 mg/dL
  TG: 125.6 mg/dL
  TP: 6.2 g/dL
  gamma-GTP: 1.4 IU/L
[5]
  TERMINAL_BW: 220.3 g
  APTT: 14.6 s
  Bas: 0%
  Eos: 1.2%
  Fbg: 242.2 mg/dL
  Hb: 13.6 g/dL
  Ht: 40.6%
  Lym: 73.4%
  MCH: 21.8 pg
  MCHC: 33.4%
  MCV: 65.3 fL
  Mono: 11.8%
  Neu: 13.8%
  PT: 12 s
  Plat: 113 x10_4/uL
  RBC: 622.8 x10_4/ul
  Ret: 7.5%
  WBC: 85.3 x10_2/uL
  KIDNEY_L: 1 g
  KIDNEY_R: 1 g
  KIDNEY_TOTAL: 2 g
  LIVER: 11.3 g
  A/G: 1.8
  ALP: 862.8 IU/L
  ALT: 23.2 IU/L
  AST: 57 IU/L
  BUN: 16.6 mg/dL
  CRE: 0.5 mg/dL
  Ca: 10.7 mg/dL
  Cl: 104.6 meq/L
  DBIL: 0.008 mg/dL
  GLC: 225.2 mg/dL
  IP: 8.3 mg/dL
  K: 4.8 meq/L
  LDH: 108.6 IU/L
  Na: 140.2 meq/L
  PL: 145.4 mg/dL
  RALB: 3.8 g/dL
  TBIL: 0.3 mg/dL
  TC: 79.2 mg/dL
  TG: 98 mg/dL
  TP: 5.9 g/dL
  gamma-GTP: 1 IU/L
[6]
  TERMINAL_BW: 247.3 g
  APTT: 15.7 s
  Bas: 0%
  Eos: 1%
  Fbg: 230.4 mg/dL
  Hb: 13.8 g/dL
  Ht: 41.1%
  Lym: 80.8%
  MCH: 20.9 pg
  MCHC: 33.5%
  MCV: 62.3 fL
  Mono: 6.8%
  Neu: 11.2%
  PT: 12.1 s
  Plat: 125.4 x10_4/uL
  RBC: 661.6 x10_4/ul
  Ret: 6.1%
  WBC: 118.4 x10_2/uL
  KIDNEY_L: 1.1 g
  KIDNEY_R: 1.1 g
  KIDNEY_TOTAL: 2.2 g
  LIVER: 12 g
  A/G: 1.5
  ALP: 797.6 IU/L
  ALT: 20.6 IU/L
  AST: 60.6 IU/L
  BUN: 18.4 mg/dL
  CRE: 0.5 mg/dL
  Ca: 10.5 mg/dL
  Cl: 105.6 meq/L
  DBIL: 0.08 mg/dL
  GLC: 227.2 mg/dL
  IP: 8.2 mg/dL
  K: 5 meq/L
  LDH: 113 IU/L
  Na: 139 meq/L
  PL: 147 mg/dL
  RALB: 3.6 g/dL
  TBIL: 0.3 mg/dL
  TC: 73.2 mg/dL
  TG: 100.4 mg/dL
  TP: 6.1 g/dL
  gamma-GTP: 1 IU/L
[7]
  TERMINAL_BW: 307.2 g
  APTT: 15.7 s
  Bas: 0%
  Eos: 1%
  Fbg: 227.8 mg/dL
  Hb: 14 g/dL
  Ht: 41.8%
  Lym: 79%
  MCH: 20.1 pg
  MCHC: 33.5%
  MCV: 60.1 fL
  Mono: 7.4%
  Neu: 12.8%
  PT: 12 s
  Plat: 118.6 x10_4/uL
  RBC: 697.4 x10_4/ul
  Ret: 5.1%
  WBC: 137 x10_2/uL
  KIDNEY_L: 1.2 g
  KIDNEY_R: 1.3 g
  KIDNEY_TOTAL: 2.5 g
  LIVER: 14.1 g
  A/G: 1.6
  ALP: 683 IU/L
  ALT: 19 IU/L
  AST: 58.2 IU/L
  BUN: 16 mg/dL
  CRE: 0.6 mg/dL
  Ca: 10.5 mg/dL
  Cl: 105.8 meq/L
  DBIL: 0 mg/dL
  GLC: 203 mg/dL
  IP: 8.1 mg/dL
  K: 5.1 meq/L
  LDH: 101.6 IU/L
  Na: 138.2 meq/L
  PL: 138.6 mg/dL
  RALB: 3.7 g/dL
  TBIL: 0.3 mg/dL
  TC: 68.8 mg/dL
  TG: 119.2 mg/dL
  TP: 6 g/dL
  gamma-GTP: 0.4 IU/L
[8]
  TERMINAL_BW: 372.9 g
  APTT: 15.6 s
  Bas: 0%
  Eos: 1%
  Fbg: 227.4 mg/dL
  Hb: 14.7 g/dL
  Ht: 44.2%
  Lym: 86.2%
  MCH: 19.1 pg
  MCHC: 33.4%
  MCV: 57.3 fL
  Mono: 2.8%
  Neu: 10%
  PT: 12 s
  Plat: 102.2 x10_4/uL
  RBC: 771.2 x10_4/ul
  Ret: 3%
  WBC: 149.4 x10_2/uL
  KIDNEY_L: 1.4 g
  KIDNEY_R: 1.3 g
  KIDNEY_TOTAL: 2.7 g
  LIVER: 15.1 g
  A/G: 1.4
  ALP: 560.2 IU/L
  ALT: 14.2 IU/L
  AST: 55.2 IU/L
  BUN: 20.4 mg/dL
  CRE: 0.6 mg/dL
  Ca: 10.1 mg/dL
  Cl: 104.8 meq/L
  DBIL: 0.042 mg/dL
  GLC: 208.6 mg/dL
  IP: 7.3 mg/dL
  K: 4.5 meq/L
  LDH: 87.4 IU/L
  Na: 141.4 meq/L
  PL: 138.6 mg/dL
  RALB: 3.6 g/dL
  TBIL: 0.2 mg/dL
  TC: 66.4 mg/dL
  TG: 131.2 mg/dL
  TP: 6.1 g/dL
  gamma-GTP: 1.4 IU/L
